Data: US20200239530A1, “COMPOUNDS AND METHODS OF MODULATING PROTEIN DEGRADATION” (Vividion Therapeutics, Inc., priority 2017, published 2020)

Legend:
Experiment in all cases: Cysteine liganding, probe competition
Format in all cases: binding
[1] = target: T1, NOC2L Nucleolar complex protein 2 homolog (Homo sapiens, UniProt Q9Y3T9)
T1 construct: Cells were resuspended in cold PBS on ice and sonicated with a probe sonicator to achieve lysis; endogenous in cells
Method in brief: (§1)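 Probe competition in native proteome: 5 mg/ml lysate, compound 1 hr 25° C, then desthiobiotin iodoacetamide (10 mM stock) 1 hr 25° C; acetone ppt, urea/DTT reduction, iodoacetamide alkylation, trypsin, streptavidin pull-down.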

[2] = target: T2, ZNF644 Zinc finger protein 644 (Homo sapiens, UniProt Q9H582)
T2 construct: Cells were resuspended in cold PBS on ice and sonicated with a probe sonicator to achieve lysis; endogenous in cells
T2 sequence (Q9H582 1-1327): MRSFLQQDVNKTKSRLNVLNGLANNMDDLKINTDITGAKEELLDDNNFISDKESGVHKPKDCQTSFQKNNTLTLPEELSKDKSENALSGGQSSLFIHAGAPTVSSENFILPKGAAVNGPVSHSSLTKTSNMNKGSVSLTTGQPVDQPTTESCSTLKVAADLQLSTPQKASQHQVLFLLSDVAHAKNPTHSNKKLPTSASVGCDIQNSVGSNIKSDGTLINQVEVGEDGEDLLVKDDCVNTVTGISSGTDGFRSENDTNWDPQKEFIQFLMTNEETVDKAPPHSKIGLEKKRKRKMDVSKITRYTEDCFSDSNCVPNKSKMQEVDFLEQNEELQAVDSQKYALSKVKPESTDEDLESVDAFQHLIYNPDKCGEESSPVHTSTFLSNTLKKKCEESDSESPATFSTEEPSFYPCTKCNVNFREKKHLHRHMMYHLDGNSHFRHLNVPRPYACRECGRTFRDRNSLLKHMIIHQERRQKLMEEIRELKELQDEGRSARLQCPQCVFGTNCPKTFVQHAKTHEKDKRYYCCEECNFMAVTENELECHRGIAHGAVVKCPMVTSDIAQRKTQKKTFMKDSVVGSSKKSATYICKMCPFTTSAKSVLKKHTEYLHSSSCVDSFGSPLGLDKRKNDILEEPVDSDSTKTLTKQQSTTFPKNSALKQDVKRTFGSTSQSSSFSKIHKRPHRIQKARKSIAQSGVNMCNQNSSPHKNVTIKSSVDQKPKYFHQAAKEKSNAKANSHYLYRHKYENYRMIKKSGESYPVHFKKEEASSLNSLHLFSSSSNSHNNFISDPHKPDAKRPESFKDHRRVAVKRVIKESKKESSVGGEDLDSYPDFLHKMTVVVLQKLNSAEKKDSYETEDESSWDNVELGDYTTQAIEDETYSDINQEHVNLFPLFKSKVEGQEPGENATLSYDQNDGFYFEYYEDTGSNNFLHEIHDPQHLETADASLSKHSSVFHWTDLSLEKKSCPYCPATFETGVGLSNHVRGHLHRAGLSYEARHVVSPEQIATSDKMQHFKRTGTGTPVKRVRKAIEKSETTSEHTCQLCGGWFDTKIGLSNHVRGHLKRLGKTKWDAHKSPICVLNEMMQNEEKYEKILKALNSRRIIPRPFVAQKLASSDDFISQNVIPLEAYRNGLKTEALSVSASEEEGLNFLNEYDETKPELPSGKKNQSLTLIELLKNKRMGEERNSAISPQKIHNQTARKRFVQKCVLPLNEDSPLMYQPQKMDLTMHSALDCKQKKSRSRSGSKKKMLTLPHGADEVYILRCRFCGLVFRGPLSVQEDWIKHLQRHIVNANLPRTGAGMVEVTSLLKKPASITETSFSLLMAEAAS
Method in brief: as §1

[3] = target: T3, RNF214 RING finger protein 214 (Homo sapiens, UniProt Q8ND24); conditions: for Liganded: RNF214 Res# 655, uniprot Q8ND24
T3 construct: Cells were resuspended in cold PBS on ice and sonicated with a probe sonicator to achieve lysis; endogenous in cells
T3 sequence (Q8ND24 whole entry): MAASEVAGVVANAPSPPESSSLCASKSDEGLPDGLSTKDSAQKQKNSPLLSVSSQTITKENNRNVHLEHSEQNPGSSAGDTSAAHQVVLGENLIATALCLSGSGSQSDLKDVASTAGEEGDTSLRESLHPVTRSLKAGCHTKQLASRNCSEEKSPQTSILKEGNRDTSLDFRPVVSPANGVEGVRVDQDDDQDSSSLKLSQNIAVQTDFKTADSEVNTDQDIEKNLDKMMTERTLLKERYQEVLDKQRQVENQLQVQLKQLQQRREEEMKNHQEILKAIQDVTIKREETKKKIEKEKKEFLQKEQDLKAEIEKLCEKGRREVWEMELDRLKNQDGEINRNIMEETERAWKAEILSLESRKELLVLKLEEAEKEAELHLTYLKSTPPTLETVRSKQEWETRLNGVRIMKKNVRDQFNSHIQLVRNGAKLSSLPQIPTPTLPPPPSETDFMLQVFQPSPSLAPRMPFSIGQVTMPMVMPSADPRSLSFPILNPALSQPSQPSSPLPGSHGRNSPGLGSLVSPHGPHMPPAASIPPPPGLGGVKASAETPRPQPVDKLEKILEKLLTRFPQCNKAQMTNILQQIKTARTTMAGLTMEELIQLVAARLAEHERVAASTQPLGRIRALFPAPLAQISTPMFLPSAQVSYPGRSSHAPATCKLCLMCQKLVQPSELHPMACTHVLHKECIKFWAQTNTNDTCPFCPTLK
Method in brief: as §1

Q: How did the Liganded ([1]; NOC2L Res# 585, uniprot Q9Y3T9) turn out when `COc1ccc2c(c1)CCCN2C(=O)CCl` [KB02] was run?
A: YES

Q: What about the Liganded ([2]; ZNF644 Res# 507, uniprot Q9H582) of the same compound?
A: YES

Q: What about the Liganded [3] of the same compound?
A: YES

Q: For `O=C(CCl)Nc1cc(C(F)(F)F)cc(C(F)(F)F)c1` [KBO3], which “100 Max” value ([1]; uniprot Q9Y3T9) is on record?
A: 29.97

Q: What about the 100 ave ([1]; uniprot Q9Y3T9) of the same compound?
A: 7.195

Q: What about the “500 Max” value ([1]; uniprot Q9Y3T9) of the same compound?
A: 59.2

Q: And the 500 ave ([1]; uniprot Q9Y3T9)?
A: 56.82

Q: What about the “100 Max” value ([2]; uniprot Q9H582) of the same compound?
A: 24.53

Q: What about the 100 ave ([2]; uniprot Q9H582) of the same compound?
A: 11.2825

Q: And the 500 ave ([2]; uniprot Q9H582)?
A: 67.685

Q: And the “500 Max” value ([2]; uniprot Q9H582, in % (unit assumed))?
A: 72.77

Q: What about the Liganded [3] of the same compound?
A: YES

Q: And the 100 ave ([3]; uniprot Q8ND24)?
A: 24.8

Q: What about the “500 Max” value ([3]; uniprot Q8ND24) of the same compound?
A: 96.4

Q: And the 500 ave ([3]; uniprot Q8ND24)?
A: 65.9

Q: What about the 100 Max ([3]; uniprot Q8ND24, unit assumed) of the same compound?
A: 35.5%
